Experimental data reported in patent US7960377B2 (priority 2008, dated 2011).

Tests used:
human CB1 receptor = human CB1 receptor (Homo sapiens, UniProt P21554); assay: cell-based
rat CB2 receptor = target: T1, rat CB2 receptor (Rattus norvegicus, UniProt Q9QZN9); assay: cell-based; type: cell-based
T1 sequence (Q9QZN9 1-360): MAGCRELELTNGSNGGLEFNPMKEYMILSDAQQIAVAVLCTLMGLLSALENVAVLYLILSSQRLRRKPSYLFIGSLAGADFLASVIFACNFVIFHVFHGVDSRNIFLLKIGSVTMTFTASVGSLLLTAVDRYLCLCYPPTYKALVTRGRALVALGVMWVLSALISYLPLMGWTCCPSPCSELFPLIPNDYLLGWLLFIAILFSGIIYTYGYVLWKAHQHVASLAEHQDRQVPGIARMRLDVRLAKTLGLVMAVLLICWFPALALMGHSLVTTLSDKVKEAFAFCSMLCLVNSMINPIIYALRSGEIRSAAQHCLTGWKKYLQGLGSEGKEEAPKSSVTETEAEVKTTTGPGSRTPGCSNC

[1] = asterisk at the compound number

Chain of human CB1 receptor (P21554 whole entry): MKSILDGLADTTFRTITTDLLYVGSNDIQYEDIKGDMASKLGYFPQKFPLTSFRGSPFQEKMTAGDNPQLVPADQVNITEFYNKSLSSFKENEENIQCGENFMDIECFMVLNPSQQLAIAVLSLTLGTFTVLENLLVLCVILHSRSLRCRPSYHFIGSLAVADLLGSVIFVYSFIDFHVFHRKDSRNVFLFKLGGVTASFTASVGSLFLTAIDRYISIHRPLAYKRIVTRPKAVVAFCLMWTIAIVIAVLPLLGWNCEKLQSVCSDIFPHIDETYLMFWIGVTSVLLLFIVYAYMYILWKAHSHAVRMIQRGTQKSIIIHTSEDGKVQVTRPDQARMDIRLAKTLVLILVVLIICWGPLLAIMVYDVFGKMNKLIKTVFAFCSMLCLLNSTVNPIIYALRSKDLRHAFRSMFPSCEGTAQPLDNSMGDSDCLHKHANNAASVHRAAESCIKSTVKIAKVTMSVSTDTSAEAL

Structure (SMILES)	EC50 (human CB1 receptor) [nM]	EC50 (rat CB2 receptor) [nM]	inverse agonist mark, human CB1 receptor (human CB1 receptor; [1])	inverse agonist mark, rat CB2 receptor (rat CB2 receptor; [1])
COCC1CCCCN1C(=O)c1cnc2c(c1)N(S(=O)(=O)c1ccc(C(F)(F)F)cc1)CCO2 (racemic) [Example 74, +/− (2-(methoxymethyl)-piperidin-1-yl)(1-(4-(trifluoromethyl)phenylsulf-onyl)-2,3-dihydro-1H-pyrido[2,3-b][1,4]oxazin-7-yl)methanone]	> 30000	≤ 30	–	–
COCCCNC(=O)c1cnc2c(c1)N(S(=O)(=O)c1ccc(F)cc1)CCO2 [Example 12]	> 30000	≤ 30	–	–
CC(C)(C)NC(=O)c1cnc2c(c1)N(S(=O)(=O)c1cccc(F)c1)CCO2 [Example 20, N-tert-butyl-1-(3-fluorophenylsulfonyl)-2,3-dihydro-1H-pyrido[2,3-b][1,4]oxazine-7-carboxamide]	> 30000	≤ 30	–	–
O=C(NC1CCCC1)c1cnc2c(c1)N(S(=O)(=O)c1cccc(F)c1)CCO2 [Example 21, N-cyclopentyl-1-(3-fluorophenylsulfonyl)-2,3-dihydro-1H-pyrido[2,3-b][1,4]oxazine-7-carboxamide]	> 30000	≤ 30	–	–
CC(C)(C)NC(=O)c1cnc2c(c1)N(S(=O)(=O)c1ccccc1F)CCO2 [Example 22, N-tert-butyl-1-(2-fluorophenylsulfonyl)-2,3-dihydro-1H-pyrido[2,3-b][1,4]oxazine-7-carboxamide]	> 30000	≤ 30	–	–
O=C(NC1CCCC1)c1cnc2c(c1)N(S(=O)(=O)c1ccccc1F)CCO2 [Example 23, N-cyclopentyl-1-(2-fluorophenylsulfonyl)-2,3-dihydro-1H-pyrido[2,3-b][1,4]oxazine-7-carboxamide]	> 30000	≤ 30	–	–
CC(C)(C)NC(=O)c1cnc2c(c1)N(S(=O)(=O)c1ccc(C(F)(F)F)cc1)CCO2 [Example 26, N-tert-butyl-1-(4-(trifluoromethyl)phenylsulf-onyl)-2,3-dihydro-1H-pyrido[2,3-b][1,4]oxazine-7-carboxamide]	> 30000	≤ 30	–	–
O=C(NC1CCCC1)c1cnc2c(c1)N(S(=O)(=O)c1ccc(C(F)(F)F)cc1)CCO2 [Example 27, N-cyclopentyl-1-(4-(trifluoromethyl)phenylsulf-onyl)-2,3-dihydro-1H-pyrido[2,3-b][1,4]oxazine-7-carboxamide]	> 30000	≤ 30	–	–
O=C(NCC1CC1)c1cnc2c(c1)N(S(=O)(=O)c1ccc(Cl)cc1)CCO2 [Example 33, 1-(4-chlorophenyl-sulfonyl)-N-(cyclopropyl-methyl)-2,3-dihydro-1H-pyrido[2,3-b][1,4]oxazine-7-carboxamide]	> 30000	≤ 30	–	–
CN(C(=O)c1cnc2c(c1)N(S(=O)(=O)c1ccc(C(F)(F)F)cc1)CCO2)C(C)(C)C [Example 40, N-tert-butyl-N-methyl-1-(4-(trifluoromethyl)-phenylsulfonyl)-2,3-dihydro-1H-pyrido[2,3-b][1,4]oxazine-7-carboxamide]	> 30000	≤ 30	–	–
COCCN(C(=O)c1cnc2c(c1)N(S(=O)(=O)c1ccc(C(F)(F)F)cc1)CCO2)C(C)(C)C [Example 43, N-tert-butyl-N-(2-methoxyethyl)-1-(4-(trifluoromethyl)phenylsulf-onyl)-2,3-dihydro-1H-pyrido[2,3-b][1,4]oxazine-7-carboxamide]	–	≤ 30	11, 24, 25, 42, 43*, 67, 117*, 121, 124, 131, 132, 148, 150, 151,	–
CC(C)(CN1CCOCC1)NC(=O)c1cnc2c(c1)N(S(=O)(=O)c1ccc(C(F)(F)F)cc1)CCO2 [Example 46, N-(2-methyl-1-morpholinopropan-2-yl)-1-(4-(trifluoromethyl)phenylsulfonyl)-2,3-dihydro-1H-pyrido[2,3-b][1,4]oxazine-7-carboxamide]	> 30000	≤ 30	–	–
CC(C)(C)NC(=O)c1cnc2c(c1)N(S(=O)(=O)c1ccc(OC(F)(F)F)cc1)CCO2 [Example 48, N-tert-butyl-1-(4-(trifluoromethoxy)phenyl-sulfonyl)-2,3-dihydro-1H-pyrido[2,3-b][1,4]oxazine-7-carboxamide]	> 30000	≤ 30	–	–
Cc1ccc(S(=O)(=O)N2CCOc3ncc(C(=O)NC(C)(C)C)cc32)s1 [Example 59, N-tert-butyl-1-(5-methylthiophen-2-ylsulfonyl)-2,3-dihydro-1H-pyrido[2,3-b][1,4]oxazine-7-carboxamide]	> 30000	≤ 30	–	–
CCC(CO)(CO)NC(=O)c1cnc2c(c1)N(S(=O)(=O)c1ccc(C(F)(F)F)cc1)CCO2 [Example 64, N-(1-hydroxy-2-(hydroxymethyl)butan-2-yl)-1-(4-(trifluoromethyl)phenylsulf-onyl)-2,3-dihydro-1H-pyrido[2,3-b][1,4]oxazine-7-carboxamide]	> 30000	≤ 30	–	–
CC(C)(C)CC(C)(C)NC(=O)c1cnc2c(c1)N(S(=O)(=O)c1ccc(C(F)(F)F)cc1)CCO2 [Example 65, 1-(4-(trifluoromethyl)-phenylsulfonyl)-N-(2,4,4-trimethylpentan-2-yl)-2,3-dihydro-1H-pyrido[2,3-b][1,4]oxazine-7-carboxamide]	> 30000	≤ 30	–	–
COC(=O)[C@@H]1CCCCN1C(=O)c1cnc2c(c1)N(S(=O)(=O)c1ccc(C(F)(F)F)cc1)CCO2 [Example 68, (S)-methyl 1-(1-(4-(trifluoromethyl)phenylsulf-onyl)-2,3-dihydro-1H-pyrido[2,3-b][1,4]oxazine-7-carbonyl)piperidine-2-carboxylate]	> 30000	≤ 30	–	–
CCOC(=O)C1(NC(=O)c2cnc3c(c2)N(S(=O)(=O)c2ccc(C(F)(F)F)cc2)CCO3)CC1 [Example 70, ethyl 1-(1-(4-(trifluoromethyl)phenylsulf-onyl)-2,3-dihydro-1H-pyrido[2,3-b][1,4]oxazine-7-carboxamido)-cyclopropanecarboxylate]	> 30000	≤ 30	–	–
CCOC(=O)C1(NC(=O)c2cnc3c(c2)N(S(=O)(=O)c2ccc(C(F)(F)F)cc2)CCO3)CCC1 [Example 71, ethyl 1-(1-(4-(trifluoro-methyl)phenylsulfonyl)-2,3-dihydro-1H-pyrido-[2,3-b][1,4]oxazine-7-carboxamido)cyclo-butanecarboxylate]	> 30000	≤ 30	–	–
CC(C)(C)NC(=O)c1cnc2c(c1)N(S(=O)(=O)c1cccc(C(F)(F)F)c1)CCO2 [Example 83, N-tert-butyl-1-(3-(trifluoromethyl)phenylsulf-onyl)-2,3-dihydro-1H-pyrido[2,3-b][1,4]oxazine-7-carboxamide]	> 30000	≤ 30	–	–
CC(C)(C)NC(=O)c1cnc2c(c1)N(S(=O)(=O)N1CCC(F)(F)C1)CCO2 [Example 163, N-tert-butyl-1-(3,3-difluoropyrrolidin-1-ylsulfonyl)-2,3-dihydro-1H-pyrido[2,3-b][1,4]oxazine-7-carboxamide]	–	≤ 30	–	–
CCC(C)(C)NC(=O)c1cnc2c(c1)N(S(=O)(=O)N1CCC(F)(F)C1)CCO2 [Example 164, 1-(3,3-difluoropyrrolidin-1-ylsulfonyl)-N-tert-pentyl-2,3-dihydro-1H-pyrido[2,3-b][1,4]oxazine-7-carboxamide]	–	≤ 30	–	–
CC(C)(CO)NC(=O)c1cnc2c(c1)N(S(=O)(=O)N1CCC(F)CC1)CCO2 [Example 168, 1-(4-fluoropiperidin-1-ylsulfonyl)-N-(1-hydroxy-2-methylpropan-2-yl)-2,3-dihydro-1H-pyrido[2,3-b][1,4]oxazine-7-carboxamide]	–	≤ 30	–	–
CC1CCN(S(=O)(=O)N2CCOc3ncc(C(=O)NCC(C)(C)CO)cc32)CC1 [Example 173, N-(3-hydroxy-2,2-dimethylpropyl)-1-(4-methylpiperidin-1-ylsulfonyl)-2,3-dihydro-1H-pyrido[2,3-b][1,4] oxazine-7-carboxamide]	–	≤ 30	–	–
CC(C)(C)NC(=O)c1cnc2c(c1)N(S(=O)(=O)N1Cc3ccccc3C1)CCO2 [Example 183, N-tert-butyl-1-(isoindolin-2-ylsulfonyl)-2,3-dihydro-1H-pyrido[2,3-b][1,4]oxazine-7-carboxamide]	–	≤ 30	–	–
COC(=O)C1(NC(=O)c2cnc3c(c2)N(S(=O)(=O)c2ccc(Cl)c(Cl)c2)CCO3)CCOCC1 [Example 205, methyl 4-(1-(3,4-dichlorophenylsulfonyl)-2,3-dihydro-1H-pyrido[2,3-b][1,4]oxazine-7-carboxamido)tetrahydro-2H-pyran-4-carboxylate]	–	≤ 30	–	–
CC(C)(C)NC(=O)c1noc(-c2cnc3c(c2)N(S(=O)(=O)c2ccc(F)cc2)CCO3)n1 [Example 214, N-tert-butyl-5-(1-(4-fluoro-phenylsulfonyl)-2,3-dihydro-1H-pyrido[2,3-b][1,4]oxazin-7-yl)-1,2,4-oxadiazole-3-carboxamide]	–	–	–	181, 188, 189, 190, 195, 200, 201, 202, 204, 211*, 214*, 220, 221,
COCCCNC(=O)c1noc(-c2cnc3c(c2)N(S(=O)(=O)c2ccc(F)cc2)CCO3)n1 [Example 216, 5-(1-(4-fluorophenylsulfonyl)-2,3-dihydro-1H-pyrido[2,3-b] [1,4]oxazin-7-yl)-N-(3-methoxypropyl)-1,2,4-oxadiazole-3-carboxamide]	–	≤ 30	–	–
O=S(=O)(c1ccc(F)cc1)N1CCOc2ncc(-c3nc4ncccc4o3)cc21 [Example 217]	–	≤ 30	–	–
O=S(=O)(c1ccc(C(F)(F)F)cc1)N1CCOc2ncc(-c3ncc(-c4ccccc4)o3)cc21 [Example 227, 7-(5-phenyloxazol-2-yl)-1-(4-(trifluoromethyl)phenyl-sulfonyl)-2,3-dihydro-1H-pyrido[2,3-b][1,4]oxazine]	–	≤ 30	–	–
